Results reported in patent US20200261534A1, “NEW TREATMENTS OF MULTIPLE MYELOMA” (priority 2017, published 2020).
Like-named read-outs stand apart in the source and are kept apart here. Starred links: 1 amine or outer side, 2 acyl side, 3 side chain; linkers in the order of their positions; H or OH if unused. Positions of bridges follow the written chain, without caps; N, C: chain ends. Non-standard residues stand in square brackets, D forms with d. Residues, ends and D or L forms follow the SMILES beside them. ξ: configuration not given here. Biphenyl(4,4'-CH2)2 = c1cc(-c2ccc(C[*:2])cc2)ccc1C[*:1]; ξαMeNle(6-ylidene) = CC(CCCC=[*:3])(N[*:1])C(=O)[*:2]; X1 = CC(CCCCCCC=[*:3])(N[*:1])C(=O)[*:2]; Octanediyl(1,8) = C(CCCC[*:2])CCC[*:1]; ξC = NC(CS)C(=O)O

Columns and labels:
[1] = test system: MM1R, lymphoblast (myeloma), resistant to Dexamethasone
Procedure: MM1R, lymphoblast, (myeloma), ATCC® CRL-2975™, resistant to Dexamethasone
(§1) All cell lines were cultured in incubator at 37° C. in RPMI-1640 (Sigma R8758) medium with 10% of fetal bovine serum inactivated (FBS) and 2 mM glutamine (Sigma G7513). During the amplification step cells were centrifuged and transferred into the culturing medium. Cells were counted in a Neubauer chamber after labelling with Tripan-Blue.
(§2) Cells were seeded at a density of 10000 cells/well in 100 μl of medium in 96 well plates. After 24 h, the compounds to be tested were added to calculate the dose/response curve at the starting concentration of 100 μM with serial dilutions (1:1). Controls are the untreated cells. Each experiment was performed in triplicate.
(§3) Cells were incubated with the peptidomimetic compound (S09) at the indicated concentrations during 24-72 h in incubator under CO2 atmosphere at 37° C. Then, cell viability was measured by means of MTT (3-(4,5-dimethylthiazol-2-yl)-2,5-diphenyltetrazolium bromide) assay. Stock solution of MTT (475989 Calbiochem) was 5 mg/ml in PBS. 1×.10 μl/well of MTT solution were added and the plate was incubated for 3-4 hr. The medium was discarded and 100 μl of extracting buffer (PBS 1×, 15% SDS, 50% […] N,N-Dimethylformamide, pH 4.7) were added to each well. Plates were incubated for 16 h at room temperature under orbital shaking. Absorbance at 570 nm was finally measured. As negative control (experiment noise) 3 wells were treated with 20 μl/well of a solution of SDS 10% in H2O.
(§4) Data analysis was performed calculating the percentage of cell viability normalized vs. the values of negative control, which was considered equal to 100%. The dose/response curve was fitted through the sigmoidal equation dose-response (variable slope) and the IC50 values were calculated as follow:
(§5) Y=Bottom+(Top−Bottom)/(1+10^{[(LogIC50−X)*HillSlope]},
(§6) All cell lines were cultured in incubator at 37° C. in RPMI-1640 (Sigma R8758) medium with 10% of fetal bovine serum inactivated (FBS) and 2 mM glutamine (Sigma G7513).
as §2, with “of 10,000” for “of 10000”, “of 40” for “of 100”
as §3, with “compounds” for “compound (S09)”

[2] = test system: RPMI-8266, lymphoblast (myeloma); assay: MTT viability assay, RPMI-8266; assay type: cell-based
Procedure: RPMI-8266, lymphoblast (myeloma), ATCC® CCL155™
as §1, §2, §3, §4, §5, §6
as §2, with “of 10,000” for “of 10000”, “of 40” for “of 100”
as §3, with “compounds” for “compound (S09)”

[3] = test system: RPMI-8266-LR5, lymphoblast (myeloma), selected for resistance to Melphalan; assay type: cell-based
Procedure: RPMI-8266-LR5, lymphoblast (myeloma), selected for resistance to Melphalan (Bellamy W T et al., Cancer Res. 1991 Feb. 1; 51(3):995-1002).
as §1, §2, §3, §4, §5, §6
as §2, with “of 10,000” for “of 10000”, “of 40” for “of 100”
as §3, with “compounds” for “compound (S09)”

[4] = test system: U266DOX4, lymphoblast (myeloma), selected for resistance to Doxorubicin; assay type: cell-based
Procedure: U266DOX4, lymphoblast (myeloma), selected for resistance to Doxorubicin (Alvarez-Fernández et al. Clin Cancer Res. 2013 May 15; 19(10):2677-87).
as §1, §2, §3, §4, §5
U266DOX4, lymphoblast (myeloma), selected for resistance to Doxorubicin (Alvarez-Fernandez et al. Clin Cancer Res. 2013 May 15; 19(10):2677-87).
as §6
Cells were seeded at a density of 10,000 cells/well in 100 μl of medium in 96 well plates. After 24 h, the compounds to be tested were added to calculate the dose/response curve at the starting concentration of 40 μM with serial dilutions (1:1). […]
Cells were incubated with the peptidomimetic compounds at the indicated concentrations during 24-72 h in incubator under CO2 atmosphere at 37° C. Then, cell viability was measured by means of MTT (3-(4,5-dimethylthiazol-2-yl)-2,5-diphenyltetrazolium bromide) assay. […] Absorbance at 570 nm was finally measured. […]

[5] = test system: U266-LR7, lymphoblast (myeloma), selected for resistance to Melphalan; assay type: cell-based
Procedure: U266-LR7, lymphoblast (myeloma), selected for resistance to Melphalan (Alvarez-Fernández et al. Clin Cancer Res. 2013 May 15; 19(10):2677-87).
as §1, §2, §3, §4, §5
U266-LR7, lymphoblast (myeloma), selected for resistance to Melphalan (Alvarez-Fernandez et al. Clin Cancer Res. 2013 May 15; 19(10):2677-87).
as §6
as §2, with “of 10,000” for “of 10000”, “of 40” for “of 100”
as §3, with “compounds” for “compound (S09)”

[6] = test system: MBA-MD231, epithelial (breast cancer); assay: MTT viability assay, MBA-MD231; assay type: cell-based
Procedure: MBA-MD231, epithelial (breast cancer), ECACC: 86012803 […] During the amplification step and the assays adherent cells were rinsed with DPBS (Dulbecco's Phosphate Buffered Saline, Sigma D1283) three times and afterward treated for 5 minutes with trypsin ([…]) (Gibco-BRL, 15400054) in solution of DPBS at 37° C., and, once detached, transferred in the culturing medium. No-adherent cells were centrifuged and transferred in the culturing medium. Cells were counted in a Neubauer chamber after labelling with Tripan-Blue. […] Cells were seeded at a density of 10,000 cells/well in 100 μl of medium in 96 well plates. […] Controls are the untreated cells. Each experiment was performed in triplicate. Cells were incubated with the compounds at the indicated concentrations during 24-72 h in incubator under CO2 atmosphere at 37° C. […] Stock solution of MTT (475989 Calbiochem) was 5 mg/ml in PBS. 1×.10 μl/well of MTT solution were added and the plate was incubated for 3-4 hr. […] Plates were incubated for 16 h at room temperature under orbital shaking. Absorbance at 570 nm was finally measured. […] The dose/response curve was fitted through the sigmoidal equation dose-response (variable slope) and the IC50 values were calculated as follow: […]

[7] = RPMI-LR5, 72 hr, Table 14, read-out: IC50 after 72 hr values
[8] = U266DOX4, 72 hr, Table 14, read-out: IC50 after 72 hr values
[9] = U266LR7, 24 hr, Table 13, read-out: IC50 after 24 hr values
[10] = U266LR7, 72 hr, Table 14, read-out: IC50 after 72 hr values
[11] = RPMI-LR5, 24 hr, Table 13, read-out: IC50 after 24 hr values

Compound | IC50 ([1]; 24 h) [µM] | IC50 ([1]; 72 h) [µM] | IC50 ([2]; 24 h) [µM] | IC50 ([2]; 72 h) [µM] | IC50 [3, 7] [µM] | IC50 [4, 8] [µM] | IC50 [5, 9] [µM] | IC50 [5, 10] [µM] | IC50 [6] [µM] | IC50 [3, 11] [µM] | IC50 ([1]; read-out: IC50 values in μM for S09, MM1R (resistant to Dexamethasone), MTT, 24-72 h, Table 7) [µM] | IC50 ([2]; RPMI, MTT, 24-72 h, Table 7, read-out: IC50 values in μM for S09) [µM] | IC50 ([3]; RPMI-LR5 (resistant to Melphalan), MTT, 24-72 h, Table 7, read-out: IC50 values in μM for S09) [µM] | IC50 ([4]; U266DOX4 (resistant to Doxorubicin), MTT, 24-72 h, Table 7, read-out: IC50 values in μM for S09) [µM] | IC50 ([5]; U266LR7 (resistant to Melphalan), MTT, 24-72 h, Table 7, read-out: IC50 values in μM for S09) [µM] | IC50 ([6]; MBA-MD231, MTT, 24-72 h, Table 12, read-out: IC50 values) [µM] | IC50 ([4]; U266DOX4, 24 hr, Table 13, read-out: IC50 after 24 hr values) [µM]
CC[C@H](C)[C@H](NC(=O)[C@H](Cc1ccc(O)cc1)NC(=O)[C@H](C)NC(=O)C1CSCCCCCCCCSCC(NC(=O)[C@H](CCCCN)NC(=O)[C@@H]2CCCN2C(=O)[C@H](C)N)C(=O)N[C@@H](C(C)C)C(=O)N[C@@H]([C@@H](C)CC)C(=O)N[C@@H](CC(C)C)C(=O)N[C@@H](CCCCN)C(=O)N[C@@H](CCCCN)C(=O)N[C@@H](C)C(=O)N1)C(=O)N[C@@H](CC(C)C)C(=O)N[C@@H](CO)C(=O)O (some centres unmarked) [IDP-P1708160] (H-APK[ξC]VILKKA[ξC]AYILS-OH; linker 4-11 via Octanediyl(1,8); N-terminus and C-terminus assumed) | 15 | 10 | 15 | 15 | 7.5 | 7.5 | 2.5 | 2.5 | 42 ± 2 |  |  |  |  |  |  |  | 
CC[C@H](C)[C@H](NC(=O)[C@H](Cc1ccc(O)cc1)NC(=O)[C@H](C)NC(=O)[C@@H]1CSCc2ccc(cc2)-c2ccc(cc2)CSC[C@H](NC(=O)[C@H](CCCCN)NC(=O)[C@@H]2CCCN2C(=O)[C@H](C)N)C(=O)N[C@@H](C(C)C)C(=O)N[C@@H]([C@@H](C)CC)C(=O)N[C@@H](CC(C)C)C(=O)N[C@@H](CCCCN)C(=O)N[C@@H](CCCCN)C(=O)N[C@@H](C)C(=O)N1)C(=O)N[C@@H](CC(C)C)C(=O)N[C@@H](CO)C(=O)O [IDP-P1708161] (H-APKCVILKKACAYILS-OH; linker 4-11 via Biphenyl(4,4'-CH2)2; N-terminus and C-terminus assumed) | 12.5 | 15 | 5 | 7.5 | 35 |  |  |  | 29 ± 2 | 35 |  |  |  |  |  |  | 
CC[C@H](C)[C@H](NC(=O)[C@H](Cc1ccc(O)cc1)NC(=O)[C@H](C)NC(=O)C1(C)CCCC=CCCCCCCC(C)(NC(=O)[C@H](CCCCN)NC(=O)[C@@H]2CCCN2C(=O)[C@H](C)N)C(=O)N[C@@H](C(C)C)C(=O)N[C@@H]([C@@H](C)CC)C(=O)N[C@@H](CC(C)C)C(=O)N[C@@H](CCCCN)C(=O)N[C@@H](CCCCN)C(=O)N[C@@H](C)C(=O)N1)C(=O)N[C@@H](CC(C)C)C(=O)N[C@@H](CO)C(=O)O (some centres unmarked) [S09, APKXVILKKAXAYILS—OH] (H-APK[X1]VILKKA[ξαMeNle(6-ylidene)]AYILS-OH; staple 4-11; N-terminus assumed) |  |  |  |  |  |  |  |  |  |  | 8.3 | 7.4 | 11.4 | 5 | 9.7 | 4.9 ± 0.3 | 
CC[C@H](C)[C@H](NC(=O)[C@H](Cc1ccc(O)cc1)NC(=O)[C@H](C)NC(=O)C1(C)CCCC=CCCCCCCC(C)(NC(=O)[C@H](CCCCN)NC(=O)[C@@H]2CCCN2C(=O)[C@H](C)N)C(=O)N[C@@H](C(C)C)C(=O)N[C@@H]([C@@H](C)CC)C(=O)N[C@@H](Cc2ccccc2)C(=O)N[C@@H](CCCCN)C(=O)N[C@@H](CCCCN)C(=O)N[C@@H](C)C(=O)N1)C(=O)N[C@@H](CC(C)C)C(=O)N[C@@H](CO)C(=O)O (some centres unmarked) [S14, APKXVIFKKAXAYILS—OH] (H-APK[X1]VIFKKA[ξαMeNle(6-ylidene)]AYILS-OH; staple 4-11; N-terminus assumed) | 15 | 15 | 10 | 10 | 10 | 15 | 10 | 10 |  | 10 |  |  |  |  |  |  | 15
